Results reported in PubChem BioAssay (NCI).
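Each compound was tested at five concentrations against cells in 96-well plates for 48 hours. The concentration for full growth arrest is given as TGI.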

Columns and labels:
Assay in all cases: DTP human tumour cell line panel, 48 h
[1] = tested on: 786-0 renal
[2] = tested on: A498 renal
[3] = tested on: A549 NSCLC
[4] = tested on: ACHN renal
[5] = tested on: CCRF-CEM leukemia
[6] = tested on: COLO 205 colon
[7] = tested on: DLD-1 colon
[8] = tested on: DMS 114 small cell lung
[9] = tested on: DMS 273 small cell lung
[10] = tested on: EKVX NSCLC
[11] = tested on: HCC-2998 colon
[12] = tested on: HCT-116 colon
[13] = tested on: HCT-15 colon
[14] = tested on: HL-60(TB) leukemia
[15] = tested on: HOP-18 NSCLC
[16] = tested on: HOP-92 NSCLC
[17] = tested on: HT29 colon
[18] = tested on: IGROV1 ovarian
[19] = tested on: K-562 leukemia
[20] = tested on: KM12 colon
[21] = tested on: KM20L2 colon
[22] = tested on: LOX IMVI melanoma
[23] = tested on: LXFL 529 NSCLC
[24] = tested on: M14 melanoma
[25] = tested on: M19-MEL melanoma
[26] = tested on: MALME-3M melanoma
[27] = tested on: MOLT-4 leukemia
[28] = tested on: NCI-H23 lung
[29] = tested on: NCI-H460 lung
[30] = tested on: NCI-H522 lung
[31] = tested on: OVCAR-3 ovarian
[32] = tested on: OVCAR-5 ovarian
[33] = tested on: OVCAR-8 ovarian
[34] = tested on: RPMI-8226 leukemia
[35] = tested on: RXF 393 renal
[36] = tested on: RXF-631 renal
[37] = tested on: SF-268 CNS
[38] = tested on: SF-295 CNS
[39] = tested on: SF-539 CNS
[40] = tested on: SK-MEL-2 melanoma
[41] = tested on: SK-MEL-28 melanoma
[42] = tested on: SK-MEL-5 melanoma
[43] = tested on: SK-OV-3 ovarian
[44] = tested on: SN12C renal
[45] = tested on: SNB-19 CNS
[46] = tested on: SNB-75 CNS
[47] = tested on: SNB-78 CNS
[48] = tested on: SR leukemia
[49] = tested on: SW-620 colon
[50] = tested on: TK-10 renal
[51] = tested on: U251 CNS
[52] = tested on: UACC-257 melanoma
[53] = tested on: UACC-62 melanoma
[54] = tested on: UO-31 renal
[55] = tested on: XF 498 CNS
[56] = tested on: CAKI-1 renal
[57] = tested on: HOP-62 NSCLC
[58] = tested on: NCI-H226 lung
[59] = tested on: OVCAR-4 ovarian

`COc1ccc(NCC#N)cc1` showed a TGI [1] of 75.8 µM, a TGI [2] greater than 100 µM and a TGI [3] greater than 100 µM. For the same molecule, the TGI [4] was greater than 100 µM, the TGI [5] was greater than 100 µM and the TGI [6] was greater than 100 µM. It also gave a TGI [7] greater than 100 µM, a TGI [8] greater than 100 µM and a TGI [9] greater than 100 µM. It also gave a TGI [10] greater than 100 µM, a TGI [11] greater than 100 µM and a TGI [12] greater than 100 µM. It also gave a TGI [13] greater than 100 µM, a TGI [14] greater than 100 µM and a TGI [15] greater than 100 µM. For the same molecule, the TGI [16] was greater than 100 µM, the TGI [17] was greater than 100 µM and the TGI [18] was greater than 100 µM. It also gave a TGI [19] greater than 100 µM, a TGI [20] greater than 100 µM and a TGI [21] greater than 100 µM. For the same molecule, the TGI [22] was greater than 100 µM, the TGI [23] was greater than 100 µM and the TGI [24] was greater than 100 µM. For the same molecule, the TGI [25] was greater than 100 µM, the TGI [26] was greater than 100 µM and the TGI [27] was greater than 100 µM. The TGI [28] was greater than 100 µM, the TGI [29] was greater than 100 µM and the TGI [30] was greater than 100 µM. The TGI [31] was greater than 100 µM, the TGI [32] was greater than 100 µM and the TGI [33] was greater than 100 µM. The TGI [34] was greater than 100 µM, the TGI [35] was greater than 100 µM and the TGI [36] was greater than 100 µM. The TGI [37] was greater than 100 µM, the TGI [38] was greater than 100 µM and the TGI [39] was greater than 100 µM. The TGI [40] was greater than 100 µM, the TGI [41] was greater than 100 µM and the TGI [42] was greater than 100 µM. It also gave a TGI [43] greater than 100 µM, a TGI [44] greater than 100 µM and a TGI [45] greater than 100 µM. The TGI [46] was greater than 100 µM, the TGI [47] was greater than 100 µM and the TGI [48] was greater than 100 µM. It also gave a TGI [49] greater than 100 µM, a TGI [50] greater than 100 µM and a TGI [51] greater than 100 µM. The TGI [52] was greater than 100 µM, the TGI [53] was greater than 100 µM and the TGI [54] was greater than 100 µM. For the same molecule, the TGI [55] was greater than 100 µM.
`Cc1ccc(Nc2nc3c(s2)C(=O)c2ccccc2C3=O)cc1` showed a TGI [1] of 3.37 µM, a TGI [2] of 30.9 µM and a TGI [3] of 4.86 µM. It also gave a TGI [4] of 3.21 µM, a TGI [56] of 3 µM and a TGI [5] of 5.04 µM. For the same molecule, the TGI [6] was 26.9 µM, the TGI [7] was 4.26 µM and the TGI [8] was 3.28 µM. For the same molecule, the TGI [9] was 3.75 µM, the TGI [10] was 16 µM and the TGI [11] was 3.58 µM. For the same molecule, the TGI [13] was 4.29 µM, the TGI [14] was 0.602 µM and the TGI [15] was 3.19 µM. The TGI [57] was 20 µM, the TGI [16] was 14.3 µM and the TGI [17] was 11.2 µM. The TGI [18] was 3.73 µM, the TGI [19] was 7.19 µM and the TGI [20] was 3.44 µM. It also gave a TGI [21] of 38.9 µM, a TGI [22] of 3.11 µM and a TGI [23] of 3 µM. It also gave a TGI [24] of 3.25 µM, a TGI [25] of 1.05 µM and a TGI [26] of 3.39 µM. For the same molecule, the TGI [27] was 3.83 µM, the TGI [58] was 33.9 µM and the TGI [28] was 4.33 µM. The TGI [30] was 3.25 µM, the TGI [31] was 4.87 µM and the TGI [59] was 2.89 µM. For the same molecule, the TGI [32] was 3.5 µM, the TGI [33] was 5.07 µM and the TGI [34] was 3.74 µM. For the same molecule, the TGI [36] was 3.8 µM, the TGI [37] was 5.66 µM and the TGI [38] was 2.99 µM. The TGI [39] was 17.7 µM, the TGI [40] was 3.94 µM and the TGI [41] was 2.99 µM. The TGI [42] was 3.43 µM, the TGI [43] was 40.1 µM and the TGI [44] was 3.4 µM. The TGI [45] was 3.33 µM, the TGI [46] was 5.03 µM and the TGI [47] was 5.82 µM. For the same molecule, the TGI [50] was 18.9 µM, the TGI [51] was 3.42 µM and the TGI [52] was 3.2 µM. For the same molecule, the TGI [53] was 3.92 µM, the TGI [54] was 4.12 µM and the TGI [55] was 3.76 µM.
Work on `NC(=O)c1ncn2c1NCC1OC2C(O)C1O` (stereo not given) yielded a TGI [1] greater than 100 µM, a TGI [2] greater than 100 µM and a TGI [3] greater than 100 µM. It also gave a TGI [4] greater than 100 µM, a TGI [56] greater than 100 µM and a TGI [5] greater than 100 µM. It also gave a TGI [6] greater than 100 µM, a TGI [7] greater than 100 µM and a TGI [8] greater than 100 µM. It also gave a TGI [9] greater than 100 µM, a TGI [10] greater than 100 µM and a TGI [11] greater than 100 µM. For the same molecule, the TGI [12] was greater than 100 µM, the TGI [14] was greater than 100 µM and the TGI [15] was greater than 100 µM. For the same molecule, the TGI [57] was greater than 100 µM, the TGI [16] was greater than 100 µM and the TGI [17] was greater than 100 µM. It also gave a TGI [18] greater than 100 µM, a TGI [19] greater than 100 µM and a TGI [20] greater than 100 µM. The TGI [21] was greater than 100 µM, the TGI [22] was greater than 100 µM and the TGI [23] was greater than 100 µM. The TGI [24] was greater than 100 µM, the TGI [25] was greater than 100 µM and the TGI [26] was greater than 100 µM. For the same molecule, the TGI [27] was greater than 100 µM, the TGI [58] was greater than 100 µM and the TGI [28] was greater than 100 µM. The TGI [30] was greater than 100 µM, the TGI [31] was greater than 100 µM and the TGI [59] was greater than 100 µM. The TGI [32] was greater than 100 µM, the TGI [33] was greater than 100 µM and the TGI [35] was greater than 100 µM. The TGI [36] was greater than 100 µM, the TGI [37] was greater than 100 µM and the TGI [38] was greater than 100 µM. The TGI [39] was greater than 100 µM, the TGI [40] was greater than 100 µM and the TGI [41] was greater than 100 µM. The TGI [42] was greater than 100 µM, the TGI [43] was greater than 100 µM and the TGI [44] was greater than 100 µM. The TGI [45] was greater than 100 µM, the TGI [46] was greater than 100 µM and the TGI [47] was greater than 100 µM. The TGI [48] was greater than 100 µM, the TGI [49] was greater than 100 µM and the TGI [50] was greater than 100 µM. For the same molecule, the TGI [51] was greater than 100 µM, the TGI [52] was greater than 100 µM and the TGI [53] was greater than 100 µM. It also gave a TGI [54] greater than 100 µM and a TGI [55] greater than 100 µM.
